Measurements as given in US20070238755A1, “Methods to treat and/or prevent radiation- and/or chemical-induced toxicity in non-malignant tissue” (priority 2005, published 2007).

Experiments:
Assay type in all cases: in vivo, male Sprague-Dawley rats
[1] = system: irradiated rats (locally irradiated scrotal hernia containing a loop of distal ileum); assay: Structural radiation injury (Radiation Injury Score) in the scrotal hernia intestinal fibrosis model, Experiment 1; conditions: 10 or 15 mg/kg/day s.c. for 24 days (Day -1 to Day 23); 5 Gy for 9 days; compared to vehicle; p=0.003 Jonckheere-Terpstra test; FIG. 1
From the text: (§1) A particularly relevant animal model for radiation toxicity is described in Wang et al., J Thromb Haemost, 2(11):2027-2035 (2004)). In brief, a “scrotal hernia” containing a 4 cm loop of distal ileum is surgically created in male Sprague-Dawley rats. After a 3 week recovery period, the scrotal hernia is irradiated locally without exposing the rest of the animal to ionizing radiation.
(§2) Scrotal hernias were created in rats which subsequently received one of three different treatments subcutaneously: (i) vehicle control (i.e., 0.4% methyl cellulose); (ii) 10 mg/kg/day of Formula 2; and (iii) 15 mg/kg/day of Formula 2. […] After an additional 2 week observation period following treatment, the rats were euthanized and assessed for radiation toxicity using these endpoints: structural radiation injury, immunohistochemistry (e.g., neutrophil infiltration, collagen type III deposition, smooth muscle cell proliferation, extracellular matrix-associated TGF-β immunoreactivity, collagen type I deposition, macrophages (ED-2)), and morphomety.
Structural radiation injury was assessed in hematoxylin-eosin-stained sections using a radiation injury score system previously described (see, Langberg et al., Acta Oncol, 31(7):781-787 (1992); and Hauer-Jensen et al., Acta Radiol Oncol, 22(4):299-303 (1983)). […]

[2] = system: irradiated rats (locally irradiated scrotal hernia containing a loop of distal ileum); assay: Quantitative immunohistochemistry of irradiated intestine, intestinal fibrosis Experiment 1
From the text: as §1
Scrotal hernias were created in rats which subsequently received one of three different treatments subcutaneously: (i) vehicle control (i.e., 0.4% methyl cellulose); (ii) 10 mg/kg/day of Formula 2; and (iii) 15 mg/kg/day of Formula 2. The treatments were administered for 24 days total, starting the day before irradiation (i.e., from Day-1 to Day 23). Beginning on Day 1, the scrotal hernia of each animal was irradiated locally by exposure to 5 Gy for 9 days. After an additional 2 week observation period following treatment, the rats were euthanized and assessed for radiation toxicity using these endpoints: structural radiation injury, immunohistochemistry (e.g., neutrophil infiltration, collagen type III deposition, smooth muscle cell proliferation, extracellular matrix-associated TGF-β immunoreactivity, collagen type I deposition, macrophages (ED-2)), and morphomety.
Quantitative immunohistochemistry was used to determine: (i) neutrophil infiltration by mycloperoxidase stalninig; (ii) intestinal smooth muscle cell proliferation using proliferation cell nuclear antigen (PCNA) labeling index; (iii) collagen deposition by staining for collagen types I and III; (iv) extracellular matrix-associated transforming growth factor (TGF)-β, and (v) macrophage ED-2. Immunohistochemical staining was performed with appropriate positive and negative controls using the avidin-biotin complex (ABC) technique previously described by Wang et al., J Thromb Haemost, 2(11):2027-2035 (2004). Primary antibodies, catalog numbers, incubation times, dilutions, and companies were: polyclonal antimyeloperoxidase antibody (A0398, 2 h, 1:100; Dako, Carpinteria, Calif., USA); monoclonal anti-PCNA antibody (NA03, 2 h, 1:100; Calbiochem, Cambridge, Mass., USA); polyclonal antibodies against collagen type I (1310-01, 2 h, 1:100 dilution; Southern Biotechnology Associates, Birmingham, Alab., USA); collagen type III (1330-01, 2 h, 1:100 dilution, Southern Biotechnology Associates); polyclonal rabbit anti-TGF-P antibody (AB-100-NA, 2 h, 1:300 dilution; R&D, Minneapolis, Minn., USA); and ED-2 (MCA342, 2 h, 1:100 dilution, Serotec, Rahway, N.C., USA).
Computerized image analysis was performed as previously described (see, Wang et al., Thromb Haemost, 87(1):122-128(2002); Wang et al., J Pharmacol Exp Ther, 297(1):35-42 (2001)). Neutrophil infiltration was assayed by identifying myeloperoxidase-positive cells as previously described (see, Wang et al., Thromb Haemost, 87(1):122-128(2002)). Areas positive for collagen types I and III deposition were measured as previously described 'see, Raviv et al., World J Urol, 15(l1):50-55 (1997); and Wang et al., Thromb Haemost, 87(1):122-128(2002)). Extracellular matrix-associated TGF-β immunoreactivity was measured as previously described (see, Richter et al., Radiother Oncol, 39(3):243-251 (1996)).
Differences in endpoints as a function of drug treatment (PAR-1 inhibitor vs. vehicle) were assessed using fixed-factor analysis of variance and post hoc comparisons with Newman-Keul's test (NCSS2000 for Windows 95, NCSS, Kaysville, Utah, USA). Univariate comparisons were performed with the Mann-Whitney U-test using StatXact 5 (Cytel Software, Cambridge, Mass., USA), a software package for exact non-parametric inference.

[3] = system: irradiated rats (locally irradiated scrotal hernia containing a loop of distal ileum); assay: Morphometry of irradiated intestine, intestinal fibrosis Experiment 1; conditions: trend is worded for vehicle-treated animals as compared to Formula 2-treated animals
From the text: as §1
as §2, with “2. The treatments were administered for 24 days total, starting the day before irradiation (i.e., from Day-1 to Day 23).” for “2.”
The thickness of the intestinal wall proper (submucosa, muscularis externa, and subserosa, but excluding the mucosa) was measured with an eyepiece linear microruler. […]

[4] = trend is worded for vehicle-treated animals as compared to Formula 2-treated animals, p=0.4 Jonckheere-Terpstra test

## CCOC(=O)N[C@@H]1CC[C@@H]2[C@@H](C1)C[C@H]1C(=O)O[C@H](C)[C@H]1[C@H]2/C=C/c1ccc(-c2ccccn2)cn1 [Formula 2]
[1]
  structural radiation injury as measured by Radiation Injury Score: less
[2]; 10 or 15 mg/kg/day s.c. for 24 days, 5 Gy for 9 days, compared to vehicle, p=0.005 Jonckheere-Terpstra test, FIG. 3
  collagen type III deposition: reduced
[2]; 10 or 15 mg/kg/day s.c. for 24 days, 5 Gy for 9 days, compared to vehicle, p=0.04 Jonckheere-Terpstra test, FIG. 4
  smooth muscle cell proliferation (PCNA positive cells): reduced
[2]; 10 or 15 mg/kg/day s.c. for 24 days, 5 Gy for 9 days, compared to vehicle, p=0.05 Jonckheere-Terpstra test, FIG. 2
  neutrophil infiltration (myeloperoxidase-positive cells): reduced
[2]; trend is worded for vehicle-treated animals as compared to Formula 2-treated animals, p=0.1 Jonckheere-Terpstra test
  extracellular matrix-associated TGF-β immunoreactivity: trend toward increased levels
[2]; [4]
  collagen type I deposition: trend toward increased levels
  macrophages (ED-2): trend toward increased levels
[3]; p=0.2 Jonckheere-Terpstra test
  intestinal wall thickening (thickness of the intestinal wall proper): trend toward intestinal wall thickening in vehicle-treated animals
[3]; p=0.3 Jonckheere-Terpstra test
  serosal thickening: trend toward serosal thickening in vehicle-treated animals
